In US20110136877A1, “2-PHENYL PHENOXYACETIC ACIDS USEFUL FOR TREATING INFLAMMATORY DISORDERS” (LIGAND PHARMACEUTICALS INC., priority 2008, published 2011):

Biological target: T1, human CRTH2 (Homo sapiens, UniProt Q9Y5Y4)
T1 construct: expressed in transfected cells; membranes used
T1 sequence (Q9Y5Y4 1-395): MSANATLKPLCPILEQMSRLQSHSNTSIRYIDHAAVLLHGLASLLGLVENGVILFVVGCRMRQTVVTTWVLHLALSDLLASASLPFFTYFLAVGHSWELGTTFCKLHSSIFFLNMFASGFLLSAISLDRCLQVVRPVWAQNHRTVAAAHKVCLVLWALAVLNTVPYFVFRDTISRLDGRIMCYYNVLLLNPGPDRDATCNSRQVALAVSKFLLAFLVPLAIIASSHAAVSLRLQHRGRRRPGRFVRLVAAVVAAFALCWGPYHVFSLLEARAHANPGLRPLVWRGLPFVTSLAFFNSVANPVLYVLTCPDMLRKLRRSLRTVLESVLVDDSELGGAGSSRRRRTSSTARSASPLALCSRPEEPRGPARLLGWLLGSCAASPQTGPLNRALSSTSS
Experiment: [35S]GTPγS binding assay (SPA)
Type: biochemical
Details: not given
Method: [^35S]GTPγS Binding Assay
SPA [^35S]GTPγS binding was performed on membranes from CHO-K1 cells stably expressing human CRTH2. To a white, clear-bottomed 384-well plate, 4 μg membrane protein was incubated in the binding buffer (20 mM HEPES, pH 7.4, 10 mM MgCl2, 300 mM NaCl, 0.2% BSA) with 60 nM DHK-PGD2, 500 pM [^35S]GTPγS, 10 μM GDP, and 100 μg wheat germ agglutinin-coupled SPA beads (GE Healthcare) with and without increasing concentrations of compounds. The final assay volume was 40 μL and contained 1% DMSO. Samples were incubated for 2 h at ambient temperature. Plates were centrifuged 5 min at 1500 rpm. Plates were read after an additional 4 h using the Trilux 1450 Microbeta (PerkinElmer) with a 30 sec/well reading time.

In the case of `CN(Cc1cccc(-c2cc(C(F)(F)F)ccc2OCC(=O)O)c1)C(=O)Oc1ccccc1` [Compound 24, {[3′-{[methyl(phenoxycarbonyl)amino]methyl}-5-(trifluoromethyl)biphenyl-2-yl]oxy}acetic acid], the IC50 is reported as 100 to 1000 nM.

Same assay, conditions: membranes from CHO-K1 cells stably expressing human CRTH2; 60 nM DHK-PGD2; read-out: CRTH2 GTPγS assay IC50

`CCCCNC(=O)CN(Cc1cccc(-c2ccccc2OCC(=O)O)c1)C(=O)OCCCC` [Compound 6, {[3′-({(butoxy carbonyl)[2-(butylamino)-2-oxoethyl]amino}methyl)biphenyl-2-yl]oxy}acetic acid] and `CCCCNC(=O)CN(Cc1cccc(-c2cc(F)ccc2OCC(=O)O)c1)C(=O)OCCCC` [Compound 7, {[3′-({(butoxy carbonyl)[2-(butylamino)-2-oxoethyl]amino}methyl)-5-fluorobiphenyl-2-yl]oxy}acetic acid] cannot be ordered by IC50: < 100 nM for the first, < 100 nM for the second.

`CCCCNC(=O)CN(Cc1cccc(-c2cc(C)ccc2OCC(=O)O)c1)C(=O)OCCCC` [Compound 8, {[3′-({(butoxy carbonyl)[2-(butylamino)-2-oxoethyl]amino}methyl)-5-methylbiphenyl-2-yl]oxy}acetic acid] and `CCCCNC(=O)CN(Cc1cccc(-c2cc(Cl)ccc2OCC(=O)O)c1)C(=O)OCCCC` [Compound 11, {[3′-({(butoxy carbonyl)[2-(butylamino)-2-oxoethyl]amino}methyl)-5-chlorobiphenyl-2-yl]oxy}acetic acid] cannot be ordered by IC50: < 100 nM for the first, < 100 nM for the second.

`CCCCNC(=O)CN(Cc1cccc(-c2cc(C(F)(F)F)ccc2OCC(=O)O)c1)C(=O)OCCCC` [Compound 9, {[3′-({(butoxy carbonyl)[2-(butylamino)-2-oxoethyl]amino}methyl)-5-(trifluoromethyl)biphenyl-2-yl]oxy}acetic acid] and `CCCCOC(=O)N(CC(=O)NC)Cc1cccc(-c2cc(C(F)(F)F)ccc2OCC(=O)O)c1` [Compound 20, {[3′-({(butoxycarbonyl) [2-(methylamino)-2-oxoethyl]amino}methyl)-5-(trifluoromethyl)biphenyl-2-yl]oxy}acetic acid] cannot be ordered by IC50: < 100 nM for the first, < 100 nM for the second.

`CCCCNC(=O)CN(Cc1cccc(-c2ccccc2OCC(=O)O)c1)C(=O)Cc1ccccc1` [Compound 13, {[3′-{[[2-(butylamino)-2-oxoethyl](phenylacetyl)amino]methyl}-biphenyl-2-yl]oxy}acetic acid] and `CCCCNC(=O)CN(CCc1ccc(-c2ccccc2OCC(=O)O)cc1)C(=O)OCCCC` [Compound 36, {[4′-({(butoxy carbonyl)[2-(butylamino)-2-oxoethyl]amino}ethyl)biphenyl-2-yl]oxy}acetic acid] cannot be ordered by IC50: < 100 nM for the first, < 100 nM for the second.

`CCCCOC(=O)N(C)Cc1cccc(-c2cc(C(F)(F)F)ccc2OCC(=O)O)c1` [Compound 18, {[3′-{[(butoxycarbonyl)(methyl)amino]methyl}-5-(trifluoromethyl)biphenyl-2-yl]oxy}acetic acid] and `CCCCNC(=O)N(C)Cc1cccc(-c2cc(C(F)(F)F)ccc2OCC(=O)O)c1` [Compound 30, {[3′-{[(butylaminocarbonyl)(methyl)amino]methyl}-5-(trifluoromethyl)biphenyl-2-yl]oxy}acetic acid] cannot be ordered by IC50: < 100 nM for the first, < 100 nM for the second.

`CCCCOC(=O)N(CCCC)Cc1cccc(-c2cc(C(F)(F)F)ccc2OCC(=O)O)c1` [Compound 19, {[3′-{[(butoxycarbonyl)(butyl)amino]methyl}-5-(trifluoromethyl)biphenyl-2-yl]oxy}acetic acid] and `CCCCOC(=O)N(Cc1cccc(-c2cc(C(F)(F)F)ccc2OCC(=O)O)c1)Cc1nccs1` [Compound 27, {[3′-{[(butoxycarbonyl)(1,3-thiazol-2-ylmethyl)amino]methyl}-5-(trifluoromethyl)biphenyl-2-yl]oxy}acetic acid] cannot be ordered by IC50: < 100 nM for the first, < 100 nM for the second.

`CNC(=O)CN(Cc1cccc(-c2cc(C(F)(F)F)ccc2OCC(=O)O)c1)C(C)=O` [Compound 21, {[3′-({(acetyl)[2-(methylamino)-2-oxoethyl]amino}methyl)-5-(trifluoromethyl)biphenyl-2-yl]oxy}acetic acid] and `CC(=O)N(Cc1cccc(-c2cc(C(F)(F)F)ccc2OCC(=O)O)c1)c1ccccc1` [Compound 22, {[3′-{[acetyl(phenyl)amino]methyl}-5-(trifluoromethyl)biphenyl-2-yl]oxy}acetic acid] fall in the same range of IC50: 100 to 1000 nM for the first, 100 to 1000 nM for the second.

`CN(Cc1cccc(-c2cc(C(F)(F)F)ccc2OCC(=O)O)c1)C(=O)c1ccccc1` [Compound 23, {[3′-{[methyl(phenylcarbonyl)amino]methyl}-5-(trifluoromethyl)biphenyl-2-yl]oxy}acetic acid] and `CN(Cc1cccc(-c2cc(C(F)(F)F)ccc2OCC(=O)O)c1)C(=O)Nc1ccccc1` [Compound 28, {[3′-{[(anilinocarbonyl)(methyl)amino]methyl}-5-(trifluoromethyl)biphenyl-2-yl]oxy}acetic acid] fall in the same range of IC50: 100 to 1000 nM for the first, 100 to 1000 nM for the second.

`CCCCOC(=O)N(Cc1cccc(-c2cc(C(F)(F)F)ccc2OCC(=O)O)c1)c1ccccc1` [Compound 25, {[3′-{[(butoxycarbonyl)(phenyl)amino]methyl}-5-(trifluoromethyl)biphenyl-2-yl]oxy}acetic acid] and `CN(Cc1cccc(-c2cc(C(F)(F)F)ccc2OCC(=O)O)c1)S(=O)(=O)c1ccccc1` [Compound 33, {[3′-{[(benzensulfonyl)(methyl)amino]methyl}-5-(trifluoromethyl)biphenyl-2-yl]oxy}acetic acid] fall in the same range of IC50: 100 to 1000 nM for the first, 100 to 1000 nM for the second.

Compared with `CN(Cc1cccc(-c2cc(C(F)(F)F)ccc2OCC(=O)O)c1)C(=O)Nc1cccnc1` [Compound 29], `CN(Cc1cccc(-c2cc(C(F)(F)F)ccc2OCC(=O)O)c1)C(=O)c1cccnc1` [Compound 32, {[3′-{[methyl(pyridine-3-ylcarbonyl)amino]methyl}-5-(trifluoromethyl)biphenyl-2-yl]oxy}acetic acid] is lower in IC50: 100 to 1000 nM for the first, < 100 nM for the second. The second is the more potent here.

`CN(Cc1cccc(-c2cc(C(F)(F)F)ccc2OCC(=O)O)c1)S(=O)(=O)c1cccnc1` [Compound 34, {[3′-{[(pyridine-3-ylsulfonyl)(methyl)amino]methyl}-5-(trifluoromethyl)biphenyl-2-yl]oxy}acetic acid] was tested, and the IC50 was 100 to 1000 nM.
